Results published in ChEMBL document CHEMBL4152250, “Antibacterial and anti-TB tat-peptidomimetics with improved efficacy and half-life” (Eur J Med Chem, 2018).
≈ marks a conversion by molar mass, not a printed value. Calls of active or inactive are those of the source. No cut-off for these calls is given here.

How the values were obtained:
[1] = Drug degradation assessed as pepsin (unknown origin)-mediated compound hydrolysis by measuring remaining compound levels at 0.5 hrs by RP-HPLC method; assay type: ADME; conditions: human, read-out: Stability
[2] = system: Mycobacterium tuberculosis; assay: Antitubercular activity against active stage of Mycobacterium tuberculosis H37Ra ATCC 25177 after 8 days by XRMA; assay type: functional, organism-based; conditions: H37Ra ATCC 25177, 192 h
[3] = Drug degradation assessed as pepsin (unknown origin)-mediated compound hydrolysis by measuring remaining compound levels at 12 hrs by RP-HPLC method; assay type: ADME; conditions: human, read-out: Stability
[4] = system: Staphylococcus epidermidis; assay: Antibacterial activity against Staphylococcus epidermidis NCIM 5270 after 12 hrs by serial dilution method; assay type: functional, organism-based; conditions: NCIM 5270, 12 h
[5] = Drug degradation assessed as pepsin (unknown origin)-mediated compound hydrolysis by measuring remaining compound levels at 18 hrs by RP-HPLC method; assay type: ADME; conditions: human, read-out: Stability
Escherichia coli [6] = assay: Antibacterial activity against Escherichia coli NCIM 2688 after 8 hrs by serial dilution method; assay type: functional, organism-based; conditions: NCIM 2688, 8 h
[7] = Drug degradation assessed as bovine pancreas chymotrypsin-mediated compound hydrolysis by measuring compound half life at 10 mM by RP-HPLC method; assay type: ADME, Bos taurus; conditions: cattle
Pseudomonas aeruginosa = assay: Antibacterial activity against Pseudomonas aeruginosa NCIM 2036 after 8 hrs by serial dilution method; assay type: functional, organism-based; conditions: NCIM 2036, 8 h
[8] = Drug degradation assessed as bovine pancreas chymotrypsin-mediated compound hydrolysis by measuring remaining compound levels at 10 mM measured at 18 hrs by RP-HPLC method; assay type: ADME, Bos taurus; conditions: cattle, read-out: Stability
[9] = Drug degradation assessed as pepsin (unknown origin)-mediated compound hydrolysis by measuring remaining compound levels at 2 hrs by RP-HPLC method; assay type: ADME; conditions: human, read-out: Stability
Enterobacter sp. = assay: Antibacterial activity against Enterobacter sp. NCIM 5392 after 8 hrs by serial dilution method; assay type: functional, organism-based; conditions: NCIM 5392, 8 h
[10] = Drug degradation assessed as pepsin (unknown origin)-mediated compound hydrolysis by measuring remaining compound levels at 1 hr by RP-HPLC method; assay type: ADME; conditions: human, read-out: Stability
Bacillus subtilis = assay: Antibacterial activity against Bacillus subtilis NCIM 2079 after 12 hrs by serial dilution method; assay type: functional, organism-based; conditions: NCIM 2079, 12 h
[11] = system: Mycobacterium tuberculosis; assay: Antitubercular activity against dormant stage of Mycobacterium tuberculosis H37Ra ATCC 25177 after 12 days by XRMA; assay type: functional, organism-based; conditions: H37Ra ATCC 25177, 288 h
[12] = Drug degradation assessed as pepsin (unknown origin)-mediated compound hydrolysis by measuring remaining compound levels at 8 hrs by RP-HPLC method; assay type: ADME; conditions: human, read-out: Stability
[13] = Drug degradation assessed as bovine pancreas chymotrypsin-mediated compound hydrolysis by measuring remaining compound levels at 10 mM measured at 4 hrs by RP-HPLC method; assay type: ADME, Bos taurus; conditions: cattle, read-out: Stability
[14] = Drug degradation assessed as bovine pancreas chymotrypsin-mediated compound hydrolysis by measuring remaining compound levels at 10 mM measured at 8 hrs by RP-HPLC method; assay type: ADME, Bos taurus; conditions: cattle, read-out: Stability
[15] = Drug degradation assessed as pepsin (unknown origin)-mediated compound hydrolysis by measuring remaining compound levels at 24 hrs by RP-HPLC method; assay type: ADME; conditions: human, read-out: Stability
[16] = Drug degradation assessed as bovine pancreas chymotrypsin-mediated compound hydrolysis by measuring remaining compound levels at 10 mM measured at 1 hr by RP-HPLC method; assay type: ADME, Bos taurus; conditions: cattle, read-out: Stability
[17] = Cytotoxicity against human HeLa cells assessed as cell viability at 1 to 10 uM after 24 hrs by MTT assay relative to control; assay type: cell-based; conditions: read-out: Activity
Staphylococcus aureus [18] = assay: Antibacterial activity against Staphylococcus aureus NCIM 2010 after 12 hrs by serial dilution method; assay type: functional, organism-based; conditions: NCIM 2010, 12 h
[19] = Drug degradation assessed as pepsin (unknown origin)-mediated compound hydrolysis by measuring remaining compound levels at 4 hrs by RP-HPLC method; assay type: ADME; conditions: human, read-out: Stability
[20] = Drug degradation assessed as bovine pancreas chymotrypsin-mediated compound hydrolysis by measuring remaining compound levels at 10 mM measured at 24 hrs by RP-HPLC method; assay type: ADME, Bos taurus; conditions: cattle, read-out: Stability
[21] = Drug degradation assessed as bovine pancreas chymotrypsin-mediated compound hydrolysis by measuring remaining compound levels at 10 mM measured at 0.5 hrs by RP-HPLC method; assay type: ADME, Bos taurus; conditions: cattle, read-out: Stability
[22] = Drug degradation assessed as bovine pancreas chymotrypsin-mediated compound hydrolysis by measuring remaining compound levels at 10 mM measured at 2 hrs by RP-HPLC method; assay type: ADME, Bos taurus; conditions: cattle, read-out: Stability
[23] = Drug degradation assessed as bovine pancreas chymotrypsin-mediated compound hydrolysis by measuring remaining compound levels at 10 mM measured at 12 hrs by RP-HPLC method; assay type: ADME, Bos taurus; conditions: cattle, read-out: Stability
Escherichia coli [24] = assay: Disruption of cell wall in Escherichia coli NCIM 2688 at MIC after 60 mins by transmission electron microscopic method; assay type: functional, organism-based
Erythrocyte = assay: Hemolytic activity in human RBC at 1 to 40 uM after 1 hr; assay type: ADME, cell-based
[25] = system: Mycobacterium tuberculosis; assay: Disruption of cell wall in active stage of Mycobacterium tuberculosis H37Ra ATCC 25177 at MIC after 60 mins by transmission electron microscopic method; assay type: functional, organism-based
[26] = system: Mycobacterium tuberculosis; assay: Disruption of cell wall in dormant stage of Mycobacterium tuberculosis H37Ra ATCC 25177 at MIC after 60 mins by transmission electron microscopic method; assay type: functional, organism-based
Staphylococcus aureus [27] = assay: Disruption of cell wall in Staphylococcus aureus NCIM 2010 at MIC after 60 mins by transmission electron microscopic method; assay type: functional, organism-based
Staphylococcus aureus [28] = assay: Antibacterial activity against Staphylococcus aureus NCIM 2010 assessed as decrease in bacterial viability at 10 ug/ml after 4 hrs by SYTO9/propidium iodide staining-based fluorescence microscopic method; assay type: functional, organism-based

Row | Structure (SMILES) | remaining at 0.5 h [1] [%] | IC50 [2] [µM] | remaining at 12 h [3] [%] | IC50 [4] [µM] | MIC [4] [µM] | remaining at 18 h [5] [%] | IC50 (Escherichia coli [6]) [µM] | MIC (Escherichia coli [6]) [µM] | half-life at 10000 µM [7] [h] | IC50 (Pseudomonas aeruginosa) [µM] | MIC (Pseudomonas aeruginosa) [µM] | remaining at 18 h, 10000 µM [8] [%] | remaining at 2 h [9] [%] | IC50 (Enterobacter sp.) [µM] | MIC (Enterobacter sp.) [µM] | remaining at 1 h [10] [%] | IC50 (Bacillus subtilis) [µM] | MIC (Bacillus subtilis) [µM] | IC50 [11] [µM] | remaining at 8 h [12] [%] | further results
1 | CC(=O)N[C@@H](Cc1ccccc1)C(=O)NCC(=O)N[C@@H](CCCNC(=N)N)C(=O)N[C@@H](CCCCN)C(=O)N[C@@H](CCCCN)C(=O)N[C@@H](CCCNC(=N)N)C(=O)N[C@@H](CCCNC(=N)N)C(=O)N[C@@H](CCC(N)=O)C(=O)N[C@@H](CCCNC(=N)N)C(=O)N[C@@H](CCCNC(=N)N)C(=O)N[C@@H](CCCNC(=N)N)C(N)=O | 94.6 | > 60 | 89 | 0.0069 | 5.78 (≈ 9.16 µg/mL) | 82.1 | 0.0101 | 6.27 (≈ 9.94 µg/mL) | 4 | 0.0265 | 7.46 (≈ 11.8 µg/mL) | 75.1 | 93.1 | 0.024 | 21.6 (≈ 34.2 µg/mL) | 94.2 | 0.012 | 3.34 (≈ 5.29 µg/mL) | 40 | 90.6 | remaining at 4 h, 10000 µM [13]: 82.6%; remaining at 8 h, 10000 µM [14]: 79.6%; remaining at 24 h [15]: 80.6%; remaining at 1 h, 10000 µM [16]: 86%; viability at 24 h, up to 10 µM [17]: ≥ 80%; IC50 (Staphylococcus aureus [18]): 0.0113 µM; MIC (Staphylococcus aureus [18]): 9.91 µM (≈ 15.7 µg/mL); remaining at 4 h [19]: 93%; remaining at 24 h, 10000 µM [20]: 15.9%; remaining at 0.5 h, 10000 µM [21]: 86.7%; remaining at 2 h, 10000 µM [22]: 84.6%; remaining at 12 h, 10000 µM [23]: 78.2%
2 | CC(=O)N[C@@H](Cc1ccccc1)C(=O)NCC(=O)N[C@H]1C[C@@H](C(=O)N[C@@H](CCCCN)C(=O)N[C@@H](CCCCN)C(=O)N[C@@H](CCCNC(=N)N)C(=O)N[C@H]2C[C@@H](C(=O)N[C@@H](CCC(N)=O)C(=O)N[C@H]3C[C@@H](C(=O)N[C@@H](CCCNC(=N)N)C(=O)N[C@H]4C[C@@H](C(=O)NCCC(N)=O)N(CCCNC(=N)N)C4)N(CCCNC(=N)N)C3)N(CCCNC(=N)N)C2)N(CCCNC(=N)N)C1 | 100 | 6.2 | 100 | 0.0042 | 1.12 (≈ 2.1 µg/mL) | 100 | 0.0053 | 1.12 (≈ 2.1 µg/mL) | 16 | 0.0042 | 0.61 (≈ 1.14 µg/mL) | 100 | 100 | 0.0042 | 1.35 (≈ 2.53 µg/mL) | 100 | 0.0037 | 0.71 (≈ 1.33 µg/mL) | 3.7 | 100 | MIC [2]: 43.9 µM (≈ 82.4 µg/mL); Activity (Escherichia coli [24]): Active; Activity (Erythrocyte): Non-Toxic; Activity [25]: Active; MIC [11]: 36.3 µM (≈ 68.1 µg/mL); remaining at 4 h, 10000 µM [13]: 100%; remaining at 8 h, 10000 µM [14]: 100%; Activity [26]: Active; remaining at 24 h [15]: 100%; Activity (Staphylococcus aureus [27]): Active; remaining at 1 h, 10000 µM [16]: 100%; viability at 24 h, up to 10 µM [17]: ≥ 80%; IC50 (Staphylococcus aureus [18]): 0.0064 µM; MIC (Staphylococcus aureus [18]): 1.26 µM (≈ 2.36 µg/mL); remaining at 4 h [19]: 100%; Activity (Staphylococcus aureus [28]): Active; remaining at 24 h, 10000 µM [20]: 100%; remaining at 0.5 h, 10000 µM [21]: 100%; remaining at 2 h, 10000 µM [22]: 100%; remaining at 12 h, 10000 µM [23]: 100%
